Target: T1, BACE1 (Homo sapiens, UniProt P56817)
T1 construct: Human HEK293 cells which are stably transfected with a vector expressing a cDNA of the human APP wt gene (APP695); endogenous in cells; host or cells: HEK293 stably transfected with human APP695 wt
Test: Cellular Aβ-lowering assay (Aβ40 ELISA)
Assay type: cell-based
Details: HEK293 cells stably expressing human APP wt (APP695); Aβ40 in supernatant after 18-20 hrs; read-out: BACE1 cell act. Aβ40 IC50
Protocol: Cellular Aβ-Lowering Assay:
Human HEK293 cells which are stably transfected with a vector expressing a cDNA of the human APP wt gene (APP695) were used to assess the potency of the compounds in a cellular assay. The cells were seeded in 96-well microtiter plates in cell culture medium (Iscove, plus 10% (v/v) fetal bovine serum, glutamine, penicillin/streptomycin) to about 80% confluence and the compounds were added at a 10× concentration in 1/10 volume of medium without FCS containing 8% DMSO (final concentration of DMSO was kept at 0.8% v/v). After 18-20 hrs incubation at 37° C. and 5% CO2 in a humidified incubator the culture supernatant was harvested for the determination of Aβ40 concentrations. 96 well ELISA plates (e.g., Nunc MaxiSorb) were coated with monoclonal antibody which specifically recognize the C-terminal end of Aβ40 (Brockhaus et al., NeuroReport 9, 1481-1486; 1998). After blocking of non-specific binding sites with e.g. 1% BSA and washing, the culture supernatants were added in suitable dilutions together with a horseradish peroxidase-coupled Aβ detection antibody (e.g., antibody 4G8, Senetek, Maryland Heights, Mo.) and incubated for 5 to 7 hrs. Subsequently the wells of the microtiter plate were washed extensively with Tris-buffered saline containing 0.05% Tween 20 and the assay was developed with tetramethylbenzidine/H2O2 in citric acid buffer. After stopping the reaction with one volume 1 N H2SO4 the reaction was measured in an ELISA reader at 450 nm wavelength. The concentrations of Aβ in the culture supernatants were calculated from a standard curve obtained with known amounts of pure Aβ peptide.

T1 sequence (P56817 46-501): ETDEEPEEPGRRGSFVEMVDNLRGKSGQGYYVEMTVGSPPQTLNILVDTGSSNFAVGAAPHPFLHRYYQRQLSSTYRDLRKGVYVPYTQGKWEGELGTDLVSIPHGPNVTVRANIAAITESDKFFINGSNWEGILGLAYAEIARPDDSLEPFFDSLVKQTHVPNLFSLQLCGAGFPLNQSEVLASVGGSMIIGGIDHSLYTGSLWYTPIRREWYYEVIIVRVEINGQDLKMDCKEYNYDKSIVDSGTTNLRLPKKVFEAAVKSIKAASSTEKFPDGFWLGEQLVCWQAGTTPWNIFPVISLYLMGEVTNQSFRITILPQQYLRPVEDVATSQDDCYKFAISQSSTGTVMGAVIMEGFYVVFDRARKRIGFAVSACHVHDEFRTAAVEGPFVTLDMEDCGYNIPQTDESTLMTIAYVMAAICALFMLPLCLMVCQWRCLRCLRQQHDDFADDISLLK

| Compound | IC50 [nM] |
| --- | --- |
| NC1=N[C@](CF)(c2cc(NC(=O)c3ncc(F)cc3F)ccc2F)[C@H]2CC(F)(F)C[C@H]2O1 [Example 8, 3,5-Difluoro-pyridine-2-carboxylic acid [(S)-3-((1R,2R)-2-amino-6,6-difluoro-4-fluoromethyl-4,4a,5,6,7,7a-hexahydro-cyclopenta[e][1,3]oxazin-4-yl)-4-fluoro-phenyl]-amide] | 16.9 |
| NC1=N[C@](CF)(c2cc(NC(=O)c3ccc(OCC(F)(F)F)cn3)ccc2F)[C@H]2CC(F)(F)C[C@H]2O1 [Example 9, 5-(2,2,2-Trifluoro-ethoxy)-pyridine-2-carboxylic acid [(S)-3-((1R,2R)-2-amino-6,6-difluoro-4-fluoromethyl-4,4a,5,6,7,7a-hexahydro-cyclopenta[e][1,3]oxazin-4-yl)-4-fluoro-phenyl]-amide] | 17 |
| NC1=N[C@](CF)(c2cc(NC(=O)c3ccc(OCC(F)(F)C(F)(F)F)cn3)ccc2F)[C@H]2CC(F)(F)C[C@H]2O1 [Example 10, 5-(2,2,3,3,3-Pentafluoro-propoxy)-pyridine-2-carboxylic acid [(S)-3-((1R,2R)-2-amino-6,6-difluoro-4-fluoromethyl-4,4a,5,6,7,7a-hexahydro-cyclopenta[e][1,3]oxazin-4-yl)-4-fluoro-phenyl]-amide] | 43 |
| NC1=N[C@](CF)(c2cc(NC(=O)c3ccc(OCC(F)(F)C(F)F)cn3)ccc2F)[C@H]2CC(F)(F)C[C@H]2O1 [Example 11, 5-(2,2,3,3-Tetrafluoro-propoxy)-pyridine-2-carboxylic acid [(S)-3-((1R,2R)-2-amino-6,6-difluoro-4-fluoromethyl-4,4a,5,6,7,7a-hexahydro-cyclopenta[e][1,3]oxazin-4-yl)-4-fluoro-phenyl]-amide] | 14 |
| NC1=N[C@](CF)(c2cc(NC(=O)c3ccc(OCC4CC4)cn3)ccc2F)[C@H]2CC(F)(F)C[C@H]2O1 [Example 12, 5-Cyclopropylmethoxy-pyridine-2-carboxylic acid [(S)-3-((1R,2R)-2-amino-6,6-difluoro-4-fluoromethyl-4,4a,5,6,7,7a-hexahydro-cyclopenta[e][1,3]oxazin-4-yl)-4-fluoro-phenyl]-amide] | 8.6 |
| NC1=N[C@](CF)(c2cc(NC(=O)c3ccc(OCC(F)F)cn3)ccc2F)[C@H]2CC(F)(F)C[C@H]2O1 [Example 14, 5-(2,2-Difluoro-ethoxy)-pyridine-2-carboxylic acid [(S)-3-((1R,2R)-2-amino-6,6-difluoro-4-fluoromethyl-4,4a,5,6,7,7a-hexahydro-cyclopenta[e][1,3]oxazin-4-yl)-4-fluoro-phenyl]-amide] | 23 |
| NC1=N[C@](CF)(c2cc(NC(=O)c3ncc(C(F)(F)F)cc3F)ccc2F)[C@H]2CC(F)(F)C[C@H]2O1 [Example 17, 3-Fluoro-5-trifluoromethyl-pyridine-2-carboxylic acid [(S)-3-((1R,2R)-2-amino-6,6-difluoro-4-fluoromethyl-4,4a,5,6,7,7a-hexahydro-cyclopenta[e][1,3]oxazin-4-yl)-4-fluoro-phenyl]-amide] | 4.1 |
| N#Cc1cnc(C(=O)Nc2ccc(F)c([C@@]3(CF)N=C(N)O[C@@H]4CC(F)(F)C[C@@H]43)c2)c(Cl)c1 [Example 19, 3-Chloro-5-cyano-pyridine-2-carboxylic acid [(S)-3-((1R,2R)-2-amino-6,6-difluoro-4-fluoromethyl-4,4a,5,6,7,7a-hexahydro-cyclopenta[e][1,3]oxazin-4-yl)-4-fluoro-phenyl]-amide] | 5.5 |
| NC1=N[C@](CF)(c2cc(NC(=O)c3cnc(OCC(F)F)cn3)ccc2F)[C@H]2CC(F)(F)C[C@H]2O1 [Example 23, 5-(2,2-Difluoro-ethoxy)-pyrazine-2-carboxylic acid [(S)-3-((1R,2R)-2-amino-6,6-difluoro-4-fluoromethyl-4,4a,5,6,7,7a-hexahydro-cyclopenta[e][1,3]oxazin-4-yl)-4-fluoro-phenyl]-amide] | 7.8 |
| NC1=N[C@](CF)(c2cc(NC(=O)c3cnc(OCC4CC4)cn3)ccc2F)[C@H]2CC(F)(F)C[C@H]2O1 [Example 25, 5-Cyclopropylmethoxy-pyrazine-2-carboxylic acid [(S)-3-((1R,2R)-2-amino-6,6-difluoro-4-fluoromethyl-4,4a,5,6,7,7a-hexahydro-cyclopenta[e][1,3]oxazin-4-yl)-4-fluoro-phenyl]-amide] | 15 |
| NC1=N[C@](CF)(c2cc(NC(=O)c3cnc(Cl)cn3)ccc2F)[C@H]2CC(F)(F)C[C@H]2O1 [Example 27, 5-Chloro-pyrazine-2-carboxylic acid [(S)-3-((1R,2R)-2-amino-6,6-difluoro-4-fluoromethyl-4,4a,5,6,7,7a-hexahydro-cyclopenta[e][1,3]oxazin-4-yl)-4-fluoro-phenyl]-amide] | 660 |

Now those with a lower IC50, led by results:

| IC50 [nM] | Compound |
| --- | --- |
| 2 | NC1=N[C@](CF)(c2cc(NC(=O)c3ccc(Cl)cn3)ccc2F)[C@H]2CC(F)(F)C[C@H]2O1 [Example 4, 5-Chloro-pyridine-2-carboxylic acid [(S)-3-((1R,2R)-2-amino-6,6-difluoro-4-fluoromethyl-4,4a,5,6,7,7a-hexahydro-cyclopenta[e][1,3]oxazin-4-yl)-4-fluoro-phenyl]-amide] |
| 0.8 | CC#CCOc1ccc(C(=O)Nc2ccc(F)c([C@@]3(CF)N=C(N)O[C@@H]4CC(F)(F)C[C@@H]43)c2)nc1 [Example 5, 5-But-2-ynyloxy-pyridine-2-carboxylic acid [(S)-3-((1R,2R)-2-amino-6,6-difluoro-4-fluoromethyl-4,4a,5,6,7,7a-hexahydro-cyclopenta[e][1,3]oxazin-4-yl)-4-fluoro-phenyl]-amide] |
| 1.7 | NC1=N[C@](CF)(c2cc(NC(=O)c3ncc(Cl)cc3Cl)ccc2F)[C@H]2CC(F)(F)C[C@H]2O1 [Example 6, 3,5-Dichloro-pyridine-2-carboxylic acid [(S)-3-((1R,2R)-2-amino-6,6-difluoro-4-fluoromethyl-4,4a,5,6,7,7a-hexahydro-cyclopenta[e][1,3]oxazin-4-yl)-4-fluoro-phenyl]-amide] |
| 3.5 | NC1=N[C@](CF)(c2cc(NC(=O)c3ccc(OC(F)F)cn3)ccc2F)[C@H]2CC(F)(F)C[C@H]2O1 [Example 13, 5-Difluoromethoxy-pyridine-2-carboxylic acid [(S)-3-((1R,2R)-2-amino-6,6-difluoro-4-fluoromethyl-4,4a,5,6,7,7a-hexahydro-cyclopenta[e][1,3]oxazin-4-yl)-4-fluoro-phenyl]-amide] |
| 2.8 | NC1=N[C@](CF)(c2cc(NC(=O)c3ccc(C(F)(F)F)cn3)ccc2F)[C@H]2CC(F)(F)C[C@H]2O1 [Example 15, 5-Trifluoromethyl-pyridine-2-carboxylic acid [(S)-3-((1R,2R)-2-amino-6,6-difluoro-4-fluoromethyl-4,4a,5,6,7,7a-hexahydro-cyclopenta[e][1,3]oxazin-4-yl)-4-fluoro-phenyl]-amide] |
| 0.8 | NC1=N[C@](CF)(c2cc(NC(=O)c3ncc(C(F)(F)F)cc3Cl)ccc2F)[C@H]2CC(F)(F)C[C@H]2O1 [Example 16, 3-Chloro-5-trifluoromethyl-pyridine-2-carboxylic acid [(S)-3-((1R,2R)-2-amino-6,6-difluoro-4-fluoromethyl-4,4a,5,6,7,7a-hexahydro-cyclopenta[e][1,3]oxazin-4-yl)-4-fluoro-phenyl]-amide] |
| 0.9 | NC1=N[C@](CF)(c2cc(NC(=O)c3cnc(OC(F)F)cn3)ccc2F)[C@H]2CC(F)(F)C[C@H]2O1 [Example 21, 5-Difluoromethoxy-pyrazine-2-carboxylic acid [(S)-3-((1R,2R)-2-amino-6,6-difluoro-4-fluoromethyl-4,4a,5,6,7,7a-hexahydro-cyclopenta[e][1,3]oxazin-4-yl)-4-fluoro-phenyl]-amide] |
| 2.5 | NC1=N[C@](CF)(c2cc(NC(=O)c3cnc(OCC(F)(F)F)cn3)ccc2F)[C@H]2CC(F)(F)C[C@H]2O1 [Example 22, 5-(2,2,2-Trifluoro-ethoxy)-pyrazine-2-carboxylic acid [(S)-3-((1R,2R)-2-amino-6,6-difluoro-4-fluoromethyl-4,4a,5,6,7,7a-hexahydro-cyclopenta[e][1,3]oxazin-4-yl)-4-fluoro-phenyl]-amide] |
| 3.5 | NC1=N[C@](CF)(c2cc(NC(=O)c3cnc(OCF)cn3)ccc2F)[C@H]2CC(F)(F)C[C@H]2O1 [Example 26, 5-Fluoromethoxy-pyrazine-2-carboxylic acid [(S)-3-((1R,2R)-2-amino-6,6-difluoro-4-fluoromethyl-4,4a,5,6,7,7a-hexahydro-cyclopenta[e][1,3]oxazin-4-yl)-4-fluoro-phenyl]-amide] |

From US8476264B2, “N-(3-(2-amino-6,6-difluoro-4,4A,5,6,7,7A-hexahydro-cyclopenta[E][1,3]oxazin-4-yl)-phenylamides as BACE1 inhibitors” (Hoffmann-La Roche Inc., priority 2011, dated 2013)
